Laboratory results published in patent US5358955A, “Aryl and heteroarylmethoxyphenyl inhibitors of leukotriene biosynthesis” (Abbott Laboratories, priority 1993, dated 1994).

Test system: Stimulated LTB4 Formation in Human Polymorphonuclear Leukocytes
Test: Inhibition of calcium ionophore-stimulated LTB4 formation in human polymorphonuclear leukocytes (PMNL)
Format: cell-based
Settings: at ~0.095 μmol, calcium ionophore 8.3 μM
Procedure: Inhibition of leukotriene biosynthesis was evaluated in an assay involving calcium ionophore-induced LTB4 expressed in human polymorphornuclear leukocytes (PMNL). Human PMNL isolated from heparinized (20 USP units/mL) venous blood (25 mL) obtained from healthy volunteers was layered over an equal volume of Ficoll-Hypaque Mono-Poly Resolving Medium (ICN Flow, Costa Mesa, CA) and centrifugated at 400 × g for 40 min at 20° C. The PMNL was collected, erythrocytes lysed and washed 2× and suspended at 1.0×10^7 cells/mL in Earle's balanced salt solution with 17 mM Earle's HEPES. Aliquots of the cell suspension were preincubated with test compounds dissolved in DMSO (final concentration <2%) for 15 min. and stimulated with calcium ionophore (final concentration 8.3 μM) for 10 min. at 37° C. Incubations were stopped with the addition of two volumes of ice-cold methanol followed by centrifuging the cell suspensions at 4° C. for 10 min at 450×g. The amount of LTB4 in the methanol extract was analyzed by enzyme-linked linked immunoassay or by HPLC analysis.

CN(O)C(=O)CSC(CCCc1ccc(Cl)cc1)c1ccc(OCc2ccc3ccccc3n2)cc1 (stereo not drawn) [Example 1, {[4-(4-Chlorophenyl)-1-(4-[2-quinolinylmethoxy]phenyl)butyl]thio}acetic acid (N-hydroxy-N-methyl)amide] was tested, and the “% Inhibition, Stimulated LTB4 Formation in Human Polymorphonuclear Leukocytes” value was 63%.

Same assay, conditions: calcium ionophore 8.3 μM.3 μM, 15 min preincubation, 37° C, read-out: IC50, In Vitro Inhibitory Potencies Against Stimulated LTB4 Formation in Human Polymorphonuclear Leukocytes

In order of rising IC50:
1. CN(O)C(=O)C(c1ccc(OCc2ccc3ccccc3n2)cc1)C1CCCCC1 (stereo not drawn) [Example 8, 2-Cyclohexyl-2-[4-(quinolin-2-yl-methoxy)phenyl]acetic acid N-hydroxy-N-methyl-amide]  33 nM
2. CN(C)OC(=O)C(CC1CCCCC1)c1ccc(OCc2ccc3ccccc3n2)cc1 (stereo not drawn) [Example 17]  45 nM
3. CN(O)C(=O)C(CC1CCCCC1)c1ccc(OCc2ccc3ccccc3n2)cc1 (stereo not drawn) [Example 3, 3-Cyclohexyl-2-[4-(quinolin-2-yl-methoxy)phenyl]propionic acid (N-hydroxy-N-methyl)amide]  64 nM
4. CN(O)C(=O)CON=C(CCCc1ccc(Cl)cc1)c1ccc(OCc2ccc3ccccc3n2)cc1 [Example 2, [(4-(4-Chlorophenyl)-1-(4-(2-quinolinylmethoxy)phenyl)butyl)oximino]acetic acid (N-hydroxy-N-methyl)amide]  66 nM
5. CNOC(=O)C(CC1CCCCC1)c1ccc(OCc2ccc3ccccc3n2)cc1 (stereo not drawn) [Example 13, N-Methyl-O-{3-cyclohexyl-2-[4-(quinolin-2-yl-methoxy)phenyl]-propionyl}-hydroxylamine]  68 nM
6. CNOC(=O)C(c1ccc(OCc2ccc3ccccc3n2)cc1)C1CCCCC1 (stereo not drawn) [Example 15, N-Methyl-O-{2-cyclohexyl-2-[4-(quinolin-2-yl-methoxy)phenyl]-acetyl}-hydroxylamine]  95 nM
7. CN(O)C(=O)C=NOC(CCCc1ccc(Cl)cc1)c1ccc(OCc2ccc3ccccc3n2)cc1 (stereo not drawn) [Example 6, {[4-(4-Chlorophenyl)-1-(4-[2-quinolinylmethoxy]phenyl)butyl]iminoxy}acetic acid N-hydroxy-N-methyl-amide]  132 nM
8. CNOC(=O)C(CC1CCCCC1)c1ccc(OCc2ccccn2)cc1 (stereo not drawn) [Example 14, N-Methyl-O-{3-cyclohexyl-2-[4-(pyrid-2-yl-methoxy)phenyl]propionyl}-hydroxylamine]  1650 nM
